The values that follow come from patent US8653069B2, “Aralkyl substituted piperidine or piperazine derivatives and their use for treating schizophrenia” (Jiangsu Hengyi Pharmaceutical Co., Ltd., priority 2008, dated 2014).

Structures can show the parent of a compound that is named as a salt. Where two headings read alike, the source gives them in different places. Bounds are passed on as bounds.

One series has as its target T1, dopamine D2 receptor (Homo sapiens, UniProt P14416).
T1 construct: expressed in transfected cells; host or cells: CHO-hD2L cells (membrane preparation)
As to the kind of experiment: Dopamine D2 receptor-binding assay ([3H]Spiperone displacement). To be noted: inhibition of binding of 0.4 nM [3H]Spiperone, CHO-hD2L film product, room temperature 120 minutes; read-out: IC50 (affinity to D2 receptor). How it is done:
A Dopamine D2 Receptor-Binding Assay
An isotope ligand for D2 receptor: [^3H]Spiperone (77.0 Ci/mmol); (+)Butaclamol; GF/C glass fiber media; a liposoluble scintillation solution; and the D2 receptor protein expressed by sf9 cells.
A binding assay of a film product of CHO-hD2L cells and [^3H]Spiperone is conducted in a 250 μl of 50 mM of Tris-HCl […] buffer (Ph=7.4) solution comprising 100 mM of NaCl, 1 mM of MgC12 and 1% of DMSO. A sample in duplicate containing compounds to be tested, 0.4 nM of [^3H]Spiperone and 12 ug of protein is maintained at room temperature for 120 minutes. The bound radioactive ligand is separated by flash filtration under reduced pressure using Whatman GF/B glass fiber filter pre-treated with 0.3% polyethylenelmine, and radioactivity maintained on the filter is measured using liquid scintillation spectrophotometry. The title compounds in the following examples are tested using the above test, which comprises first of all testing competitive inhibition rate of each compound at a concentration of 10 umol/L to binding of [^3H]Spiperone to D2 receptor through a rough screening; and compounds having inhibition rate higher than 95% are subjected to receptor binding assay under a series of concentrations to determine a half-inhibitory concentration (IC50, the concentration of a compound needed for inhibiting binding of 50% [^3H]Spiperone to D2 receptor). Two tubes under each concentration are measured, and each compound is subjected to two independent tests.

In a further series the target is T2, rD2R (Rattus norvegicus, UniProt P61169).
T2 construct: expressed in transfected cells; host or cells: CHO cells stably expressing rD2R (CHO-rD2)
T2 sequence (P61169 whole entry): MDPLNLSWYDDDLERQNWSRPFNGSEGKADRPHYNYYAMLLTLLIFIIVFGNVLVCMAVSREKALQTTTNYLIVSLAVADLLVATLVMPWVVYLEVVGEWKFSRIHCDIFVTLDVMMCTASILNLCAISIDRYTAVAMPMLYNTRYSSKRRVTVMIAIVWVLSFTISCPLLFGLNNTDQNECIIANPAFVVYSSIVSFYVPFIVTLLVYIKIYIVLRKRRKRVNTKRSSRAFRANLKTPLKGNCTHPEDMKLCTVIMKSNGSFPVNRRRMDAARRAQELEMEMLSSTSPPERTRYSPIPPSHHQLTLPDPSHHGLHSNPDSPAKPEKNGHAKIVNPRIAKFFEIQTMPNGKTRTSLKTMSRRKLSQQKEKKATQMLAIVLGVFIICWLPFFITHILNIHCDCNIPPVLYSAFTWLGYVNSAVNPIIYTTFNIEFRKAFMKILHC
Nature of the series: Antagonistic test of D2 receptor (cAMP radioimmunoassay, Forskolin + Dopamine, CHO-rD2 cells). The series is classed as cell-based. The note with it: 10 μM Forskolin + 10 μM Dopamine, cAMP generated. How it is done: An Antagonistic Test of D2 Receptor
CHO-rD2 cell is seeded on a 96-well plate at a concentration of 30,000 cells/well, and cultured overnight; each medicine is dissolved in a serum-free F12 culture media containing 100 μM of IBMX, and is added to the above cell for preculturing 30 minutes at 37° C.; thereafter a serum-free F12 culture media containing 10 μM of Forskolin and 10 μM of Dopamine is added and react for 8 minutes, and then 100 μl of pre-cooled 1M HClO4 is added to terminate the reaction. The reaction solution is allowed to stand on ice for 40 minutes, and thereto 20 μl of 2M K2CO3 is added to neutralize the reaction solution. The reaction solution is centrifuged at 3,000 rpm for 15 minutes at 4° C., and a KClO4 deposit is discarded. An amount of supernatant is diluted in 0.05M of acetic acid buffer, and the amount of generated cAMP is measured with radioimmunoassay method. […] See the kit's instructions for detailed steps. Two tubes under each concentration of each compound are measured, and each compound is subjected to two independent tests.
The ordinate of the dose-effect curve represents a reduced percentage of the amount of generated cAMP through antagonist of DA by the compound.

Series [1] has as its system histidine auxotroph mutant of mouse salmonella TA97, TA98, TA100 and TA102. An excerpt: Bacterial Reverse Mutation Test of II-1
Strains: histidine auxotroph mutant of mouse salmonella TA97, TA98, TA100 and TA102.
Results: the test consists of two parts, i.e., −S9 and +S9. […] No bacteriostatic actions to all the strains are observed at all other doses, and the growth background is good.

Series [2] is described as follows: Oral absorption in studies on animal models. Type of series: in vivo.
A short description of a further series: in vivo. To be noted: mouse, po.
Series [3] concerns schizophrenia behaviors in mice induced by apomorphine. As to the kind of experiment: In vivo anti-schizophrenia activity: apomorphine-induced stereotyped behavior in mice. To be noted: female KM mice, oral gavage 30 minutes before apomorphine 10 mg/kg i.p.; II-1 20 mg/kg, aripiprazole 5 mg/kg, risperidone 0.25 mg/kg. How it is done:
A Test of In Vivo Anti-Schizophrenia Activity of Compound II-1
Apomorphine: apomorphine is dissolved in 0.1% ascorbic acid to form a solution having a dosage of 10 mg/kg.
Aripiprazole is dissolved in physiological saline to form a solution having a dosage of 5 mg/kg, and subjected to ultrasonication for dissolving.
Risperidone is dissolved in physiological saline to form a solution having a dosage of 0.25 mg/kg.
Compound II-1 is formulated to 20 mg/kg, and is formulated in situ for use.
Female KM mice, 18-22 g, are randomly divided into a solvent control group, a model control group, a positive control group, and various treatment groups of the tested medicines. Groups for behavior observation test contain 5 mice each group, and groups for activity observation test contain 4 mice each group.
(1) Administration in mice: each group of mice is administrated with 0.1 ml/10 g of the various tested medicines by oral gavage. […]
The stereotyped behavior numbers of the mice in various groups at six time points are statistically analyzed to calculate an average number of each mouse, and the result is denoted by mean±SD.
The test result of stereotyped behavior is statistically analyzed using a LSD method; and observation result of the numbers of activities of the mice is statistically analyzed with repeated-measures analysis of variance and Q-test.

T1 sequence (P14416 whole entry): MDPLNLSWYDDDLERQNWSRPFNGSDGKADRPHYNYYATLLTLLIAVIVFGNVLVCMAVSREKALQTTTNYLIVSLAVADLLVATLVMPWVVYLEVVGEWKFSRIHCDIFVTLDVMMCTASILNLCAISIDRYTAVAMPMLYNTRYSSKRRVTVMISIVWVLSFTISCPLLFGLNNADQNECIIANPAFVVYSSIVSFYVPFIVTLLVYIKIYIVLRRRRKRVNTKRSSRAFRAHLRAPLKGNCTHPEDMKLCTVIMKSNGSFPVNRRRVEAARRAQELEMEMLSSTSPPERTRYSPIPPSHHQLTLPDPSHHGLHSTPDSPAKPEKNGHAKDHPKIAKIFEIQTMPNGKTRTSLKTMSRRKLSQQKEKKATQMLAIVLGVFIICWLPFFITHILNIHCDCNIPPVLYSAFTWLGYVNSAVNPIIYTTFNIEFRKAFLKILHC

By IC50 is commonly meant the concentration needed to halve the response being measured. For orientation: LD50 means the dose at which mortality reaches 50%. As for `O=C1CCc2ccc(OCCCCN3CCC(c4noc5cc(F)ccc45)CC3)cc2N1` [II-1, 7-[4-(4-(6-fluoro-benzisoxazolyl)-1-piperidinyl)-n-butoxy]-3,4-dihydro-2(1H)-quinolinone hydrochloride], the IC50 at dopamine D2 receptor is 5.66 nM; at rD2R, 3380 nM. Besides, the Ames test result in series [1] (TA97, TA98, TA100, TA102, with or without S9, all tested doses) is given as “negative”. Further, the “dose showing bacteriostatic action” value is 5000 μg per dish in series [1] (TA97, test system containing S9) and 5000 μg per dish in series [1] (TA98, test system without S9). The oral absorption result in series [2] is on record as “good”. In addition, the LD50 in “in vivo” is above 2000 mg/kg.
For `Cc1nc2n(c(=O)c1CCN1CCC(c3noc4cc(F)ccc34)CC1)CCCC2` [risperidone], the “number of stereotyped activities of mice compared with the model group” value in series [3] is given as “reduced significantly”. Moreover, the LD50 in the series “in vivo” turned out to be 83.2 mg/kg.
Turning to `O=C1CCc2ccc(OCCCCN3CCN(c4cccc(Cl)c4Cl)CC3)cc2N1` [aripiprazole], the “number of stereotyped activities of mice compared with the model group” value in series [3] is “reduced significantly”. In the series “in vivo”, the 50% lethal dose (LD50) came out at 1400 mg/kg.
